This is an account of results in ChEMBL document CHEMBL1129157, “Design and synthesis of a new class of conformationally constrained inhibitors to probe the active sites of thermolysine and neutral endopeptidase 24.11” (Bioorg Med Chem Lett, 1996).

One may read the IC50 as the concentration that gives 50% inhibition. A high value points to weaker potency.

The nature of assay [1]: Compound was tested for inhibition of thermolysine, a bacterial zinc-endopeptidase. The format is functional.
Another assay concerns the target T1, Neprilysin (Rattus norvegicus, UniProt P07861).
T1 sequence (P07861 whole entry): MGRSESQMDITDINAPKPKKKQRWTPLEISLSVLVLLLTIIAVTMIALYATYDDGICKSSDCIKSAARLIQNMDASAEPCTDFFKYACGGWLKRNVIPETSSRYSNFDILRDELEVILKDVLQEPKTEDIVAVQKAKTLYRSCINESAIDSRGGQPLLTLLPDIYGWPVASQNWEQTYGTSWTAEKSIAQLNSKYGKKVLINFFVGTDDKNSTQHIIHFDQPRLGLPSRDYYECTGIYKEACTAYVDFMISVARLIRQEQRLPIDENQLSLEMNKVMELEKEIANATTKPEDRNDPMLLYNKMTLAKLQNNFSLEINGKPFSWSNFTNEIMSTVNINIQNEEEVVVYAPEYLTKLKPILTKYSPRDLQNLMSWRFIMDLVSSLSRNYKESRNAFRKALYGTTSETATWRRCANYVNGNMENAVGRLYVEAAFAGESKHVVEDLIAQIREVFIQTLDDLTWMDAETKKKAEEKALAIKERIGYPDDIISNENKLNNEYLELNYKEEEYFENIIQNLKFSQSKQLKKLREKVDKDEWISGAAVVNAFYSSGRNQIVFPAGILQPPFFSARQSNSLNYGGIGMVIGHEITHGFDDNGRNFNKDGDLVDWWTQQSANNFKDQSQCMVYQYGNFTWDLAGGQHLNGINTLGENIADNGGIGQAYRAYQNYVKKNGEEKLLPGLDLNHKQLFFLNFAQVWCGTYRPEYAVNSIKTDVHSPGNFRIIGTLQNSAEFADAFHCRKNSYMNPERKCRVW
The assay is described as follows: Compound was tested for inhibition of rat kidney neutral endopeptidase.

Take `O=C(O)CNC(=O)[C@@H](CS)Cc1ccccc1` [(S)-THIORPHAN]: the IC50 in assay [1] was determined as 1800 nM.

In the case of `O=C(O)[C@@H]1CCCC2c3ccccc3C[C@H](CS)C(=O)N21` (some centres not stated), the IC50 at Neprilysin was over 300 nM.

Regarding `O=C(O)CNC(=O)[C@@H]1[C@@H](S)CC[C@H]1c1ccccc1`, the IC50 in assay [1] amounted to 110000 nM; on Neprilysin it was 480 nM.

For `O=C(O)CNC(=O)[C@H]1[C@H](S)CC[C@@H]1c1ccccc1`, the IC50 in assay [1] worked out at 29000 nM; against Neprilysin, 430 nM.

For the molecule `O=C(O)CNC(=O)[C@H](CS)Cc1ccccc1` [(R)-THIORPHAN], in assay [1], the IC50 was 3000 nM.
